Experimental data published in PMC11375702, “Early Preclinical Studies of Ergosterol Peroxide and Biological Evaluation of Its Derivatives” (ACS Omega, 2024).

Legend:
[1] = Metabolic stability in mouse liver microsomes; assay type: in vitro ADME; conditions: female, CD-1, pooled liver microsomes, read-out: metabolic stability (mouse) t1/2 (converted)
Method: Human and/or mouse microsomal degradation was determined using multiple time points to monitor the rate of disappearance of the parent compound during incubation following the method described by Di et al.[51],[52] […] The metabolic stability was evaluated via the half-life from the least-squares fit of the multiple time points based on first-order kinetics. Waters ACQUITY-TOQ UPLC-MS-MS-UV system was used to analyze the samples as established in various MS core facilities.[51],[52]

[2] = Maximum tolerated dose (MTD) study, single oral dose; assay type: in vivo, mouse; conditions: for Gross pathology, External Abnormalities: No Abnormality Detected (number of mice) / Gross pathology, Internal Abnormalities: No Abnormality Detected (number of mice): 6 mice examined
Method: The study was conducted according to published and acceptable experimental conditions reported.[53] Animal protocols approved by LSU#IACUCAM21065 and UCC# 037–2021–16–01-PHA-IBC. Briefly, male and female Balb/c mice were given a single oral dose administration of ergosterol peroxide to C57BL/6 female and male mice (5–8 weeks old), followed by 7 days postdose observations. Toxicity is defined as a 20% loss of body weight. The study comprised three groups for a toxicity phase including: one control and two EP-treated groups (G2 and G3), having 6 mice/sex/group. Mice from groups G2 (300 mg/kg BW) and G3 (500 mg/kg BW) were administered an EP uniform suspension (light yellow), once by oral gavage. The mice from the control group (G1) received a 1% v/v Tween 80 and 0.5% w/v NaCMC in the RO water suspension. The dosing volume was kept constant at 10 mL/kg for each mouse. Then, animals were euthanized, and organs (liver, lung, heart, and kidney) were collected to check global signs of toxicity. Parameters evaluated included observation for clinical signs, body weight, body weight gain, feed consumption, clinical chemistry, and gross pathology. The total animals per MTD was 36 mice.

CYP2D6 = CYP2D6 (Homo sapiens, UniProt P10635); test: Microsomal CYP inhibition assay, CYP2D6; assay type: in vitro ADME; conditions: pooled human liver microsomes, probe dextromethorphan
Chain of CYP2D6 (P10635 whole entry): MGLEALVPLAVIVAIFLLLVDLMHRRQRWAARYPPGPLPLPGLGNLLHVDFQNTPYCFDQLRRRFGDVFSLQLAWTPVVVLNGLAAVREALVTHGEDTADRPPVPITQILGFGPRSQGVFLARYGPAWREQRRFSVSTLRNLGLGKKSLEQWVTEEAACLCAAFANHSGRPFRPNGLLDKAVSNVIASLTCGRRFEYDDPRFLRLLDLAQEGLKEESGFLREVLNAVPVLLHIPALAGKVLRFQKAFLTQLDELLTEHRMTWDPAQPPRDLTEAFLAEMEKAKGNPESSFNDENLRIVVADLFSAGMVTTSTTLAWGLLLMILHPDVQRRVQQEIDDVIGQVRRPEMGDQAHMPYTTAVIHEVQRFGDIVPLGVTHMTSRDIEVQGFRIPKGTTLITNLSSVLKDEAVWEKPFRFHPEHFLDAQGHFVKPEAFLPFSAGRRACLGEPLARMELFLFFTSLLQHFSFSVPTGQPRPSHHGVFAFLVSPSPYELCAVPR
Method: To assess potential cardiotoxicity, we performed the human ether-go-go-related gene (hERG) inhibition assay. […] Briefly, EP was tested at six concentrations (cumulative concentration–response). […] For hepatotoxicity determination, we performed the microsomal CYP inhibition assay. Briefly, EP was incubated at seven increasing concentrations with pooled human liver microsomes. […] The supernatants were analyzed by LC-MS/MS.

[3] = Parallel Artificial Membrane Permeability Assay (PAMPA); assay type: in vitro ADME
Method: This assay is to analyze the permeability of various drugs/compounds on a homogeneous artificial lipid membrane using the normal Double-Sink PAMPA protocol. Then, 6 μL of 10 mM compound solution in DMSO was applied to each well in a stock plate. Compounds were diluted 200-fold in PBS buffer (pH = 7.4). 180 μL of diluted solution was added to a donor plate (pION INC, Woburn, MA). A filter plate (acceptor plate; pION INC, Woburn, MA) containing 200 μL of acceptor sink buffer (ASB, pH = 7.4; pION INC, Woburn, MA) was then placed over the donor plate. The plates were incubated at room temperature for 0.5 h with magnetic stirring in individual wells to allow the compounds to cross the membrane. Fractions were collected from both the donor plate and the acceptor plate, and the concentrations were assessed by UV spectrometry (230–500 nm). Sample preparation, sample analysis, and data processing are fully automated using a Biomek FX ADME-TOX workstation and the UV-based PAMPA Evolution-96 Command Software. All compounds were tested in triplicates.

[4] = Plasma protein binding, rapid equilibrium dialysis (human); assay type: in vitro ADME; conditions: read-out: plasma binding (human) protein binding (converted)
Method: This assay determines the plasma protein binding of a drug or compound and free drug concentration in plasma using rapid equilibrium dialysis. We use the Single-Use RED (rapid equilibrium dialysis, Thermo Scientific) devices to allow the aqueous component of plasma containing the free drug/compound through a dialysis membrane (MWCO ∼ 8000). Sample quantification is determined using a Waters ACQUITY-SOQ UPLC-MS-ELDS-UV system.

## CC(C)[C@@H](C)/C=C/[C@@H](C)[C@H]1CC[C@@H]2[C@]1(C)CC[C@H]1[C@]23C=C[C@]2(C[C@@H](O)CC[C@]12C)OO3 [Compound 2, Ergosterol peroxide]
[1]
  half-life: 5.63 h
[2]; 300 mg/kg (G2), male mice
  decrease in albumin vs vehicle control: 6%
[2]; 500 mg/kg (G3), male mice
  decrease in triglycerides vs vehicle control: 19%
[2]; both sexes, mouse, in vivo, single oral dose, male or female mice
  MTD at 7 days: > 500 mg/kg
[2]; female, 300 mg/kg
  ALB, mean: 3.08 g/dL
  ALP, mean: 394.32 U/L
  ALT, mean: 44.99 U/L
  AST, mean: 88.20 U/L
  BUN, mean: 16.45 mg/dL
  CREA, mean: 0.21 mg/dL
  TGL, mean: 38.15 mg/dL
  Gross pathology, External Abnormalities: No Abnormality Detected (number of mice): 6
[2]; female, 300 mg/kg, day 1
  Body Weight, mean: 21.05 g
[2]; female, 300 mg/kg, day 1 to 4
  Food Consumption, Average Feed Intake/ Animal: 12.3 g/Animal
[2]; female, 300 mg/kg, day 4
  Body Weight, mean: 21.15 g
[2]; female, 300 mg/kg, day 4 to 7
  Food Consumption, Average Feed Intake/ Animal: 12.2 g/Animal
[2]; female, 300 mg/kg, day 7
  Body Weight, mean: 21.45 g
[2]; female, 500 mg/kg
  ALB, mean: 3.03 g/dL
  ALP, mean: 400.51 U/L
  ALT, mean: 47.50 U/L
  AST, mean: 75.14 U/L
  BUN, mean: 17.63 mg/dL
  CREA, mean: 0.20 mg/dL
  TGL, mean: 30.51 mg/dL
  Gross pathology, External Abnormalities: No Abnormality Detected (number of mice): 6
[2]; female, 500 mg/kg, day 1
  Body Weight, mean: 21.27 g
[2]; female, 500 mg/kg, day 1 to 4
  Food Consumption, Average Feed Intake/ Animal: 12.3 g/Animal
[2]; female, 500 mg/kg, day 4
  Body Weight, mean: 21.17 g
[2]; female, 500 mg/kg, day 4 to 7
  Food Consumption, Average Feed Intake/ Animal: 11.8 g/Animal
[2]; female, 500 mg/kg, day 7
  Body Weight, mean: 21.53 g
[2]; male, 300 mg/kg
  ALB, mean: 2.91 g/dL
  ALP, mean: 312.51 U/L
  ALT, mean: 34.83 U/L
  AST, mean: 47.80 U/L
  BUN, mean: 16.45 mg/dL
  CREA, mean: 0.17 mg/dL
  TGL, mean: 51.23 mg/dL
  Gross pathology, External Abnormalities: No Abnormality Detected (number of mice): 6
  Gross pathology, Internal Abnormalities: No Abnormality Detected (number of mice): 6
[2]; male, 300 mg/kg, day 1
  Body Weight, mean: 21.85 g
[2]; male, 300 mg/kg, day 1 to 4
  Food Consumption, Average Feed Intake/ Animal: 14.9 g/Animal
[2]; male, 300 mg/kg, day 4
  Body Weight, mean: 22.28 g
[2]; male, 300 mg/kg, day 4 to 7
  Food Consumption, Average Feed Intake/ Animal: 14.6 g/Animal
[2]; male, 300 mg/kg, day 7
  Body Weight, mean: 23.03 g
[2]; male, 500 mg/kg
  ALB, mean: 3.03 g/dL
  ALP, mean: 412.86 U/L
  ALT, mean: 54.07 U/L
  AST, mean: 91.50 U/L
  BUN, mean: 17.06 mg/dL
  CREA, mean: 0.17 mg/dL
  TGL, mean: 46.91 mg/dL
  Gross pathology, External Abnormalities: No Abnormality Detected (number of mice): 6
  Gross pathology, Internal Abnormalities: No Abnormality Detected (number of mice): 6
[2]; male, 500 mg/kg, day 1
  Body Weight, mean: 22.62 g
[2]; male, 500 mg/kg, day 1 to 4
  Food Consumption, Average Feed Intake/ Animal: 10.4 g/Animal
[2]; male, 500 mg/kg, day 4
  Body Weight, mean: 22.70 g
[2]; male, 500 mg/kg, day 4 to 7
  Food Consumption, Average Feed Intake/ Animal: 13.7 g/Animal
[2]; male, 500 mg/kg, day 7
  Body Weight, mean: 22.27 g
[2]; oral, 300 and 500 mg/kg, mice
  clinical signs: no abnormal clinical signs
CYP2D6
  IC50: > 25 µM
[3]; PAMPA, pH 7.4, pH 7.40, read-out: PAMPA Avg Pe
  Papp at 0.5 h, 50 µM: 65.3 ×10⁻⁶ cm/s
[3]; pH 7.40
  PAMPA %R: 81.90%
  PAMPA Avg Pe: 65.31 10–6 cm/s
[4]
  fraction unbound: 0.28

## CC(C)[C@@H](C)/C=C/[C@@H](C)[C@H]1CC[C@@H]2[C@]1(C)CC[C@H]1[C@]23C=C[C@]2(CC(=O)CC[C@]12C)OO3 [Compound 3]
[1]
  half-life: 0.9 h
[3]; PAMPA, 0.5 h, 50 µM, pH 7.4
  PAMPA Avg Pe: 00 10–6 cm/s
